The values below come from US20140057284A1, “PHOTOLUMINESCENT MOLECULAR COMPLEX AND METHOD FOR DETERMINING OF THE CONCENTRATION OF SAID MOLECULAR COMPLEX” (priority 2011, published 2014).

Structures are written as SMILES.

One test has as its target catalytic subunit of cAMP-dependent protein kinase (PKAc) (Homo sapiens, UniProt P17612). Description: Binding affinity to PKAc. The settings on record: PKAc and some other PKs of the AGC group; in words.
For the compound `N=C(N)NCCC[C@@H](NC(=O)CCCCCNC(=O)c1ccc(-c2ccnc(N)n2)[se]1)C(=O)NCCCCCC(=O)N[C@H](CCCNC(=N)N)C(=O)N[C@H](CCCNC(=N)N)C(=O)N[C@H](CCCNC(=N)N)C(=O)N[C@H](CCCNC(=N)N)C(=O)N[C@H](CCCNC(=N)N)C(=O)N[C@H](CCCNC(=N)N)C(=O)N[C@H](CCCCN)C(N)=O` [ARC-1138], the “affinity of binding to PKAc” value is reported as “subnanomolar or low nanomolar”.
In the case of `N=C(N)NCCC[C@@H](NC(=O)CCCCCNC(=O)c1ccc(-c2ccncn2)s1)C(=O)NCCCCCC(=O)N[C@H](CCCNC(=N)N)C(=O)N[C@H](CCCNC(=N)N)C(=O)N[C@H](CCCNC(=N)N)C(=O)N[C@H](CCCNC(=N)N)C(=O)N[C@H](CCCNC(=N)N)C(=O)N[C@H](CCCNC(=N)N)C(=O)N[C@H](CCCCN)C(N)=O` [ARC-1129], the “affinity of binding to PKAc” value is on record as “subnanomolar or low nanomolar”.
`N=C(N)NCCC[C@@H](NC(=O)CCCCCNC(=O)c1ccc(-c2ccnc(N)n2)s1)C(=O)NCCCCCC(=O)N[C@H](CCCNC(=N)N)C(=O)N[C@H](CCCNC(=N)N)C(=O)N[C@H](CCCNC(=N)N)C(=O)N[C@H](CCCNC(=N)N)C(=O)N[C@H](CCCNC(=N)N)C(=O)N[C@H](CCCNC(=N)N)C(=O)N[C@H](CCCCNc1ccc([N+](=O)[O-])c2nonc12)C(N)=O` [ARC-676]: the “affinity of binding to PKAc” value was “subnanomolar or low nanomolar”.
Same read-out and setting: the value for `Cc1nccc(-c2ccc(C(=O)NCCCCCC(=O)N[C@H](CCCNC(=N)N)C(=O)NCCCCCC(=O)N[C@H](CCCNC(=N)N)C(=O)N[C@H](CCCNC(=N)N)C(=O)N[C@H](CCCNC(=N)N)C(=O)N[C@H](CCCNC(=N)N)C(=O)N[C@H](CCCNC(=N)N)C(=O)N[C@H](CCCNC(=N)N)C(=O)N[C@H](CCCCN)C(N)=O)s2)n1` [ARC-1123] was “subnanomolar or low nanomolar”; that for `N=C(N)NCCC[C@@H](NC(=O)CCCCCNC(=O)c1ccc(-c2ccnc(N)n2)s1)C(=O)NCCCCCC(=O)N[C@H](CCCNC(=N)N)C(=O)N[C@H](CCCNC(=N)N)C(=O)N[C@H](CCCNC(=N)N)C(=O)N[C@H](CCCNC(=N)N)C(=O)N[C@H](CCCNC(=N)N)C(=O)N[C@H](CCCNC(=N)N)C(=O)N[C@H](CCCCN)C(N)=O` [ARC-668] was “subnanomolar or low nanomolar”; that for `N=C(N)NCCC[C@@H](NC(=O)CCCCCNC(=O)c1ccc(-c2ncnc3[nH]ccc23)s1)C(=O)NCCCCCC(=O)N[C@H](CCCNC(=N)N)C(=O)N[C@H](CCCNC(=N)N)C(=O)N[C@H](CCCNC(=N)N)C(=O)N[C@H](CCCNC(=N)N)C(=O)N[C@H](CCCNC(=N)N)C(=O)N[C@H](CCCNC(=N)N)C(=O)N[C@H](CCCCN)C(N)=O` [ARC-1135] was “subnanomolar or low nanomolar”.
On the same count and under the same terms, the value for `N=C(N)NCCC[C@@H](NC(=O)[C@@H](CCCNC(=N)N)NC(=O)CCCCCNC(=O)[C@@H](CCCCN)NC(=O)CCCCCNC(=O)c1ccc(-c2ccncc2)s1)C(N)=O` [ARC-1121] was “subnanomolar or low nanomolar”.
The same measure, in the same setting: then `N=C(N)NCCC[C@@H](NC(=O)CCCCCNC(=O)c1ccc(-c2ncnc3[nH]cnc23)s1)C(=O)NCCCCCC(=O)N[C@H](CCCNC(=N)N)C(=O)N[C@H](CCCNC(=N)N)C(=O)N[C@H](CCCNC(=N)N)C(=O)N[C@H](CCCNC(=N)N)C(=O)N[C@H](CCCNC(=N)N)C(=O)N[C@H](CCCNC(=N)N)C(=O)N[C@H](CCCCN)C(N)=O` [ARC-1132], with “subnanomolar or low nanomolar”.

Another test deals with PKAc (Homo sapiens, UniProt P17612). Description: Measurement of dissociation kinetics of inhibitor-kinase complexes with ARC-1063. Type of test: binding. Particulars: inhibitor 5-10 nM, PKAc 10 nM, 27° C., ARC-1063 100-300 nM. How it is done: Measurements of dissociation kinetics of non-labeled inhibitors from the inhibitor-kinase complexes (residence time) were carried out by mixing the solution of the examined inhibitor (5-10 nM) with PKAc (10 nM), and incubation of the solution for 15 min at 27° C., followed by addition of a high concentration of the luminescent probe ARC-1063 (final concentration of 100-300 nM), and measurement of the luminescence signal at 5 s time intervals (FIG. 10). The collected data were fitted to the first-order kinetic model yielding the dissociation rate constants for the examined inhibitors.
On to `CN[C@@H]1C[C@H]2O[C@@](C)([C@@H]1OC)n1c3ccccc3c3c4c(c5c6ccccc6n2c5c31)C(=O)NC4` [staurosporine], for which the “Dissociation half-lives of PKAc complexes” value came out at 12 s.

In another test the test system is PKAc in living C9H6 cells. Description: Monitoring of kinase activity in living cells loaded with ARC-1139. The class given is cell-based. The settings on record: H89 100 μM added after Forskolin. How it is done:
CHO, C9H6 and HEK cells were cultured in F12 Nutrient Mixture supplemented with 10% fetal bovine serum, 2 mM L-glutamine, 100 U/ml penicillin and 100 μg/ml streptomycin at 37° C. in humidified atmosphere containing 5% CO2. In case of C9H6 cells, 300 μg/ml of Zeocine™ and 800 μg/ml of Geneticin® were additionally introduced to the nutrient mixture. Cells were seeded to 96-well plates (for plate reader experiments) and grown to 60%-80% confluency. The medium was replaced with fresh serum-free medium containing the luminescent probe ARC-1139 (10 μM) and incubated for 1 hour at 37° C. Subsequently, the cells were washed three times with PBS and analyzed on a PheraStar platereader with TRF optic modules [ex. 337(50) nm, em. 675(50) and 620(20) nm] using the time-resolved fluorescence measurement mode. Forskolin (final concentration of 25 μM) and H89 (final concentration of 100 μM) were added to the cells during the measurement (after 3 min and 7 min from the start of data acquisition, respectively)
Turning to `O=S(=O)(NCCNC/C=C/c1ccc(Br)cc1)c1cccc2cnccc12` [H89], the “luminescence from live cells loaded with ARC-1139 after Forskolin” value is recorded as “signal decreased”.
